Data set [1] in a line: Antiproliferative activity against human GTL16 cells after 72 hrs by tetrazolium-based colorimetric assay. The following applies: GTL 16, 72 h.
Data set [2] is described as follows: Aqueous solubility at pH 6.5. The class given is physicochemical.
The test system of another data set is Liver. Briefly: Metabolic stability in mouse liver microsomes. The class given is ADME, Microsome. On the technique in general: Liver microsomes are a subcellular fraction often used to study metabolism.
A short description of data set [3]: Clearance in mouse at 20 mg/kg, iv. The class given is ADME, organism-based. More on the design: dose 20 mg/kg, route intravenous. The following applies: in vivo.
Data set [4] can be described thus: Cmax in mouse at 50 mg/kg, po. The class given is ADME, organism-based. Further details: dose 50 mg/kg, route oral. The settings on record: in vivo.
The target in data set [5] is Insulin-like growth factor 1 receptor (Homo sapiens, UniProt P08069). Briefly: Inhibition of IGF1R.
For data set [6], the target named is MAP kinase-activated protein kinase 2 (Homo sapiens, UniProt P49137). The data set is described as follows: Inhibition of MK2.
MAP kinase-activated protein kinase 2, sequence (P49137 whole entry): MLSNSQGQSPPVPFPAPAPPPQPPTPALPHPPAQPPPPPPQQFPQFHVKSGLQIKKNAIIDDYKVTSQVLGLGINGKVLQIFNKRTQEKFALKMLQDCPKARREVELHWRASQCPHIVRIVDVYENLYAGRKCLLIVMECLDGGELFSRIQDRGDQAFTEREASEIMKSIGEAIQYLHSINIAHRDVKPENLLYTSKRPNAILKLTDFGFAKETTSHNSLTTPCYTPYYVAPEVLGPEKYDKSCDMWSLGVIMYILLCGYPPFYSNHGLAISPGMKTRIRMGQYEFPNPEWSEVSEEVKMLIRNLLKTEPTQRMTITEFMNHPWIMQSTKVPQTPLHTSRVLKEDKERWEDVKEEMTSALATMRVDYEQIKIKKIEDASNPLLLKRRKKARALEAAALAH
The nature of data set [7]: Inhibition of PKC.
For data set [8], the target named is Receptor tyrosine-protein kinase erbB-2 (Homo sapiens, UniProt P04626). The data set is described as follows: Inhibition of HER2.
Receptor tyrosine-protein kinase erbB-2, sequence (P04626 whole entry): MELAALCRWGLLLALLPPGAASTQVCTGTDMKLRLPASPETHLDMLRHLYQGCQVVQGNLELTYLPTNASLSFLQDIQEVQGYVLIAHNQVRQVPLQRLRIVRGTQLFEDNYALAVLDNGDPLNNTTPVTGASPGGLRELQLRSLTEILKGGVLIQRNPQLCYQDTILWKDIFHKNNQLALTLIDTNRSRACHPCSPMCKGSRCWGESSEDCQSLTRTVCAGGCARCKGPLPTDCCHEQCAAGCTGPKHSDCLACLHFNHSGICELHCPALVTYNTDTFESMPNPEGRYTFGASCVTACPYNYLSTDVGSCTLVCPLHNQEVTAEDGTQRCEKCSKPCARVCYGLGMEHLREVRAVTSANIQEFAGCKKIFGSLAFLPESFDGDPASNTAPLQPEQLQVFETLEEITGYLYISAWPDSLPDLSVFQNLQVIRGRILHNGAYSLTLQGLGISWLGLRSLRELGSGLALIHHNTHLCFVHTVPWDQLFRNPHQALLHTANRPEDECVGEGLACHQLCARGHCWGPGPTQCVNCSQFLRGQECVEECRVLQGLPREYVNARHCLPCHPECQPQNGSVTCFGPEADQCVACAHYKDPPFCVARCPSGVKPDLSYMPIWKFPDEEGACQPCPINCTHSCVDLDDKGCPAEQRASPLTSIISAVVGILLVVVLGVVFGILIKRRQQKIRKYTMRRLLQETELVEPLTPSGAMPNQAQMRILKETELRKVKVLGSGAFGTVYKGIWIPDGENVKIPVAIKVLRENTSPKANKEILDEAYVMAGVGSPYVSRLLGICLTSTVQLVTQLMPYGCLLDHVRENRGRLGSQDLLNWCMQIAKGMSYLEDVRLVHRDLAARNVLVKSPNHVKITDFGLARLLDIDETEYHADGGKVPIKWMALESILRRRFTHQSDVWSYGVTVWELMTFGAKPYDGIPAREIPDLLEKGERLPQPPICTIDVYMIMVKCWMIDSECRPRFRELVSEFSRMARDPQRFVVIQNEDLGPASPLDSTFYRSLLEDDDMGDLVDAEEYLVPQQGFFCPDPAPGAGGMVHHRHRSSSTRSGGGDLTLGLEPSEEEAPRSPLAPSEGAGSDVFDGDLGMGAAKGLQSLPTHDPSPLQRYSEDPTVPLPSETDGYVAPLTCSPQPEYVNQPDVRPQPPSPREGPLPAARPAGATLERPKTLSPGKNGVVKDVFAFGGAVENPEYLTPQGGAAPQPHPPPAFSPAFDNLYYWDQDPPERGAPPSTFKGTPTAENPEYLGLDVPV
Data set [9] can be described thus: Inhibition of PKA.
A short description of data set [10]: Permeability across human Caco-2 cells. The class given is ADME, cell-based. The following applies: read-out: permeability. For orientation: Caco-2 monolayers are a common model of the intestinal barrier.
Data set [11] has as its target Vascular endothelial growth factor receptor 2 (Homo sapiens, UniProt P35968). Briefly: Inhibition of VEGFR2.
Data set [12] in a line: Bioavailability in mouse at 20 mg/kg, ip. The class given is ADME, organism-based. The settings on record: in vivo.
The nature of data set [13]: Metabolic stability per 10^6 cells in mouse hepatocytes. The class given is ADME, cell-based, Hepatocyte.
The target of data set [14] is Cyclin-dependent kinase 2 (Homo sapiens, UniProt P24941). Briefly: Inhibition of CDK2.
For data set [15], the target named is Tyrosine-protein kinase Lck (Homo sapiens, UniProt P06239). Briefly: Inhibition of lck.
Tyrosine-protein kinase Lck, sequence (P06239 whole entry): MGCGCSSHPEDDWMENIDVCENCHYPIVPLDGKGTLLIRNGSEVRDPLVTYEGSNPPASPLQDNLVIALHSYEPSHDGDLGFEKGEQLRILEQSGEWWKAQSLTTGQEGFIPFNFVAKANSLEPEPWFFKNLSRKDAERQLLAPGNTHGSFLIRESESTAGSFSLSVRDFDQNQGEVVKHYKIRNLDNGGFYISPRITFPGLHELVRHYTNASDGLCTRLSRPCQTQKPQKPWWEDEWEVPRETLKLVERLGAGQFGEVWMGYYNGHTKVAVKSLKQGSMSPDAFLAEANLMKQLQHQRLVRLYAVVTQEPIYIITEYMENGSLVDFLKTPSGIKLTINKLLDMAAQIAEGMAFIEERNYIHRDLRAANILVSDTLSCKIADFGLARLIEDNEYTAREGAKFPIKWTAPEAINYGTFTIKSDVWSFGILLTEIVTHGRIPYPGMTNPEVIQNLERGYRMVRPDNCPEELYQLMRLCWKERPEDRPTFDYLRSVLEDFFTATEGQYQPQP
The target of data set [16] is High affinity nerve growth factor receptor (Homo sapiens, UniProt P04629). Briefly: Inhibition of TrkA.
For a further data set, the target named is Insulin receptor (Homo sapiens, UniProt P06213). The data set is described as follows: Inhibition of InsR.
Data set [17] concerns the target Hepatocyte growth factor receptor (Homo sapiens, UniProt P08581). The data set is described as follows: Inhibition of human recombinant c-Met expressed in insect cell-baculovirus expression system.

Converted amounts (≈) assume the structure as drawn. Bounds are passed on as bounds.

Vascular endothelial growth factor receptor 2, sequence (P35968 whole entry): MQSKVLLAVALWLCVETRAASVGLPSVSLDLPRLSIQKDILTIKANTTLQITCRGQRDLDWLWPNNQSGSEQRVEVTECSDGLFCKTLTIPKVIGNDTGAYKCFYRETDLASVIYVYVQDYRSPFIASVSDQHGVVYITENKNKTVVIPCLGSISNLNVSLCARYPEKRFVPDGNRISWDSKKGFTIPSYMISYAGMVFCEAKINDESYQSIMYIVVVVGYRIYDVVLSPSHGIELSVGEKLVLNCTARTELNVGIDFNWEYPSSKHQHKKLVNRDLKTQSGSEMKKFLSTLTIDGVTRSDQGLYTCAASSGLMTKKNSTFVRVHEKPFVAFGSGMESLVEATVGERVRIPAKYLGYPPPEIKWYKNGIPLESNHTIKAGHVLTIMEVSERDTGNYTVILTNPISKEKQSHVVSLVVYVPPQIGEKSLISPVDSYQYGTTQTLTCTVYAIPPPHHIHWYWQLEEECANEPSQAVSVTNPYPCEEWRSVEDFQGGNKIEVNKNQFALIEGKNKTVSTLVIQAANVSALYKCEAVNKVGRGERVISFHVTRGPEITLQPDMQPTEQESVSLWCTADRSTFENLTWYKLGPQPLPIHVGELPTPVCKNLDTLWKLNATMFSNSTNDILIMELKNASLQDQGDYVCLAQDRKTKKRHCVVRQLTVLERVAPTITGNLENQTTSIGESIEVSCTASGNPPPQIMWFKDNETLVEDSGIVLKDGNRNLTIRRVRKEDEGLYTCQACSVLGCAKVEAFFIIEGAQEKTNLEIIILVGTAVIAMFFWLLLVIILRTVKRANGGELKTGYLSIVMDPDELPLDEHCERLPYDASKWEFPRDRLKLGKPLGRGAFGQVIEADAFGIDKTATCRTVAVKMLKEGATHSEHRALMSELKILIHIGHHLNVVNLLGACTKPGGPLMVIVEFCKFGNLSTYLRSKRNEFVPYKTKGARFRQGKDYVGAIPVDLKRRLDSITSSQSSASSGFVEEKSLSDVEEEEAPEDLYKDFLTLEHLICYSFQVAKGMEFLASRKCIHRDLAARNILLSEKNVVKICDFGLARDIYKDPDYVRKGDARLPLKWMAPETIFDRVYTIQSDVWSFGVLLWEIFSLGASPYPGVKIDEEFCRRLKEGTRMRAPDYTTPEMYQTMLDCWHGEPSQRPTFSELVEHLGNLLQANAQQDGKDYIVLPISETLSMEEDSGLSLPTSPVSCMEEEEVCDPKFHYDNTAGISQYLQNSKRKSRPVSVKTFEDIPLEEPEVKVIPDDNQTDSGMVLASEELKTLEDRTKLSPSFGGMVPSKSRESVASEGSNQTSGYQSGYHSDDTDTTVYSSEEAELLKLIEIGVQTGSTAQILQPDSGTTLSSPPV
Hepatocyte growth factor receptor, sequence (P08581 whole entry): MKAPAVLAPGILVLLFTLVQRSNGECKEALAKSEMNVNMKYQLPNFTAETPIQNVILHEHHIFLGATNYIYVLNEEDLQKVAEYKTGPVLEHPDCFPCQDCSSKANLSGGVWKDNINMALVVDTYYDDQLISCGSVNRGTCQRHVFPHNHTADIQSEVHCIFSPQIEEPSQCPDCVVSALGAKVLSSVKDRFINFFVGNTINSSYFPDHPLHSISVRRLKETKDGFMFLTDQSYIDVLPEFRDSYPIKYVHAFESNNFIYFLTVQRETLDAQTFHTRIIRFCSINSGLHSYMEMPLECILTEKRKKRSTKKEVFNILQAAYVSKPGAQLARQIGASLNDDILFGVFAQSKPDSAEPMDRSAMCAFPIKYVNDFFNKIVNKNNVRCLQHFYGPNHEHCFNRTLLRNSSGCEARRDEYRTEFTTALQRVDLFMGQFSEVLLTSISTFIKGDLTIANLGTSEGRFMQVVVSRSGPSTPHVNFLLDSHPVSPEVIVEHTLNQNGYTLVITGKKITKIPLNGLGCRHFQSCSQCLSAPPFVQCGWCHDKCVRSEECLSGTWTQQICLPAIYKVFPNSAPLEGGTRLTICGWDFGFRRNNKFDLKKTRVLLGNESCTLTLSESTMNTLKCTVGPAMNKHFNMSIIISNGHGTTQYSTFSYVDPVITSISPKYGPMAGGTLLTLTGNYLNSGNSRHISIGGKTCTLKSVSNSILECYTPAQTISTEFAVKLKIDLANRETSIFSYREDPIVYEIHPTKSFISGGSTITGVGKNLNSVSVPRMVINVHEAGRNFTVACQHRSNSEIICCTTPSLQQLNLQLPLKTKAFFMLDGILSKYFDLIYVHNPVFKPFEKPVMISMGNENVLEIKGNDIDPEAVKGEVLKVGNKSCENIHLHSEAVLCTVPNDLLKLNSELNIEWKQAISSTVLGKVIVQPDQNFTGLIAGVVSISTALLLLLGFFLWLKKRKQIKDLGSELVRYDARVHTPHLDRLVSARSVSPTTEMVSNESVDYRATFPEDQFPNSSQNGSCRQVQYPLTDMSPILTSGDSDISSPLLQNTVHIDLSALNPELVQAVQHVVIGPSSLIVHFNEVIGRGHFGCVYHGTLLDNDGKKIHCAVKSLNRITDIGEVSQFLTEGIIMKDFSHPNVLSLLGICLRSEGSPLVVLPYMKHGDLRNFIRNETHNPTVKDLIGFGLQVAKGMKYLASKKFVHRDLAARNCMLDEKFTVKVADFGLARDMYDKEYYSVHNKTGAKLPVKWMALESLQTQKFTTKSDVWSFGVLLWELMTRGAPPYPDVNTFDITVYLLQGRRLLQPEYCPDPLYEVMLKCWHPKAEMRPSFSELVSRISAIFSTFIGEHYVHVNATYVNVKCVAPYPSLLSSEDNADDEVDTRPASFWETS

In the case of `Cc1c(OCCN2CCN(C)CC2)cn2ncnc(Oc3ccc(NC(=O)c4cc(Cl)ccc4F)cc3F)c12`, in data set [1], the half-inhibitory concentration (IC50) (in general, the point on the concentration scale where inhibition reaches its midpoint) is 270 nM.
Regarding `O=C(Cc1ccc(F)cc1)NC(=O)Nc1ccc(Oc2ncnn3ccc(CN4CCNCC4)c23)c(F)c1`, in data set [2], the solubility (as a rule, the concentration that dissolves in the medium under given conditions) stood at 290 µg/mL (≈ 556 µM).
As to `NC1CCN(Cc2ccn3ncnc(Oc4ccc(NC(=O)NC(=O)Cc5ccc(F)cc5)cc4F)c23)CC1`, the Stability in the data set on Liver is on record as 0 nmol/min/mg; in data set [13] it was 2 pmol/min. Also, the clearance (in general, the volume of plasma or blood freed of the substance per unit of time) in [3] was 25 mL/min/kg. For the same compound, the highest level in data set [4] (Cmax) was 780 nM. Also, the IC50 in [5], in data set [6], in data set [7], in data set [8], in [9] and in [11] was over 5000 nM in each case. For the same compound, the IC50 was over 5000 nM in data set [14], over 5000 nM in data set [15], 200 nM in data set [16] and over 5000 nM against Insulin receptor. For the same compound, the Papp in [10] is under 1.5 ×10⁻⁶ cm/s. The bioavailability (commonly dose-corrected exposure relative to a reference, in per cent) in data set [12] was 81%.
`NC1CCC(=Cc2ccn3ncnc(Oc4ccc(NC(=O)NC(=O)Cc5ccc(F)cc5)cc4F)c23)CC1` (stereo unspecified) had an IC50 in [1] of 140 nM.
On to `Cc1c(OCCCN(C)C)cn2ncnc(Oc3ccc(NC(=O)CC(=O)Nc4ccc(F)cc4)cc3F)c12`, for which the half-maximal inhibitory concentration (IC50) in data set [1] was determined as 270 nM.
In the case of `O=C(Cc1ccc(F)cc1)NC(=O)Nc1ccc(Oc2ncnn3ccc(Cl)c23)c(F)c1`, the IC50 in data set [17] was over 2000 nM.
For `Cc1c(OCCN2CCN(C)CC2)cn2ncnc(Oc3ccc(NC(=O)c4ccccc4F)cc3F)c12`, half-maximal inhibition in data set [1] (IC50) was put at 840 nM.
In turn, `Cc1c(OCCN2CCN(C)CC2)cn2ncnc(Oc3ccc(NC(=O)c4cc(F)ccc4F)cc3F)c12` had an IC50 in [1] of over 1000 nM.
For the compound `Cc1c(OCCN2CCN(C)CC2)cn2ncnc(Oc3ccc(NC(=O)c4c(F)cccc4F)cc3F)c12`, the IC50 in data set [1] was over 1000 nM.
Still for that read-out and setting: with `Cc1c(OCCCN(C)C)cn2ncnc(Oc3ccc(NC(=O)c4c(F)cccc4F)cc3F)c12` the figure was 170 nM; with `Cc1c(OCCCN(C)C)cn2ncnc(Oc3ccc(NC(=O)NC(=O)Cc4ccc(F)cc4)cc3F)c12`, 68 nM.
